Measurements reported in patent US20260242419A1, “A CYCLIC PEPTIDE FOR TRAPPING INTERLEUKIN-1 BETA” (Merck Sharp & Dohme LLC, priority 2023, published 2026).
Starred links: 1 amine or outer side, 2 acyl side, 3 side chain; linkers in the order of their positions; H or OH if unused. Non-standard residues stand in square brackets, D forms with d. Residues, ends and D or L forms follow the SMILES beside them. Phe(4-(5-CO2H-2-pyrimidyl)) = N[C@@H](Cc1ccc(-c2ncc(C(=O)O)cn2)cc1)C(=O)O; Phe(4-(4-Ac-piperazinyl)) = CC(=O)N1CCN(c2ccc(C[C@H](N)C(=O)O)cc2)CC1; Trp(βS-Me,4-F) = C[C@@H](c1c[nH]c2cccc(F)c12)[C@H](N)C(=O)O; Bip(4'-COOH) = N[C@@H](Cc1ccc(-c2ccc(C(=O)O)cc2)cc1)C(=O)O; dPro(4R-Bzl(4-F)) = O=C(O)[C@H]1C[C@@H](Cc2ccc(F)cc2)CN1; X14 = O=C([C@H]1[C@@H](Cc2ccccc2)CCN1[*:1])[*:2]; X5 = O=C([C@H]1C[C@@H](Cc2ccccc2)CN1[*:1])[*:2]; Ala(pyrimidin-5-yl) = N[C@@H](Cc1cncnc1)C(=O)O; Phe(4-COOH) = N[C@@H](Cc1ccc(C(=O)O)cc1)C(=O)O; Pro(cis-4-F) = O=C(O)[C@@H]1C[C@H](F)CN1; 2Pal = N[C@@H](Cc1ccccn1)C(=O)O; 3Pal = N[C@@H](Cc1cccnc1)C(=O)O; 4Pal = N[C@@H](Cc1ccncc1)C(=O)O; Dab = NCC[C@H](N)C(=O)O; Aib = CC(C)(N)C(=O)O

target: T1, IL-1β (Homo sapiens, UniProt P01584); assay: IL-6 assay in MRC5 cells: inhibition of IL-1β induced IL-6 secretion (AlphaLISA); type: cell-based; conditions: inhibition of IL-1β induced IL-6 secretion in MRC5 cells; read-out: MRC5 IC50
T1 construct: purchased BioLegend 579404
Protocol: Procedure for IL-6 Assay in MRC5 Cells
The inhibition of IL-1β induced IL-6 secretion was evaluated in MRC5 cells. Recombinant human IL-1β (BioLegend 579404) at 2λ EC80 concentration was prepared in seeding medium. EMEM (ATCC 30-2003) with 0.025% BSA (Sigma A9576), 1×penicillin/streptomycin (Gibco 15070-063), 1×NEAA (Gibco 11140-050), 1×GlutaMax (Gibco 35050-061), and 1×sodium pyruvate (Gibco 11360-070), 20 μL of IL-1β was added to a 384-well collagen-coated plate (Corning 354664) and pre-incubated at ambient temperature for 1 hour with 200 nL of compound dispensed using an ECHO 555 liquid handler. Human lung fibroblast MRC5 cells (ATCC CCL-171) were added at a density of 3000 cells/20 μL per well. The cells were prepared by passaging three times in growth medium, EMEM (ATCC 30-2003) with 10% fetal bovine serum (Gibco 16140-071), 1×penicillin/streptomycin (Gibco 15070-063), 1×NEAA (Gibco 11140-050), 1×GlutaMax (Gibco 35050-061), and 1×sodium pyruvate (Gibco 11360-070) in collagen-coated T175 flasks (Greiner 661950) and harvested in seeding medium after 5 minutes of 0.25% trypsin-EDTA (Gibco 25200-056) digestion. The 384-well collagen-coated plate, containing a final volume of 40 μL, was incubated at 37° C., 5% CO2 overnight. 5 μL of the conditioned medium was transferred to a 384-well AlphaLISA plate (PerkinElmer 6005350) for detection of IL-6 using the human AlphaLISA IL-6 kit (PerkinElmer AL223F) as per the manufacturer's protocol. 20 μL of the acceptor bead/biotinylated antibody mix was added to the 384-well AlphaLISA plate and incubated for 1 hour at ambient temperature. The donor bead mix was protected from light and 25 μL was added to the plate and incubated for 30 minutes at ambient temperature. The AlphaLISA plate was read on an EnVision multimode plate reader (Perkin Elmer model 2104) using the AlphaScreen setting (laser exc at 680 nm and emis at […]). Dose response curves and IC50 values were analyzed using a 4-parameter logistic equation in Spotfire software (Tibco, Palo Alto, CA).

T1 sequence (P01584 117-269): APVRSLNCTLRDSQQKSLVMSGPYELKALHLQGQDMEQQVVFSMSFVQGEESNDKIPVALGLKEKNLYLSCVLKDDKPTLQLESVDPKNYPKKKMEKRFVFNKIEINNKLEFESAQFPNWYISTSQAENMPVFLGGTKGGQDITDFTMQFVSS

Row | SMILES | IC50
1 | C[C@@H](c1c[nH]c2cccc(F)c12)[C@@H]1NC(=O)[C@@H]2C[C@H](F)CN2C(=O)CNC(=O)[C@H](Cc2ccc(C(=O)O)cc2)NC(=O)[C@H](Cc2ccncc2)NC(=O)[C@H](Cc2ccc(-c3ccc(C(=O)O)cc3)cc2)NC(=O)[C@H]2[C@@H](Cc3ccccc3)CCN2C(=O)CNC(=O)[C@H](CO)NC(=O)[C@H](CCC(N)=O)NC(=O)[C@H](Cc2cncnc2)NC(=O)C(C)(C)NC(=O)[C@H](Cc2c[nH]c3ccccc23)NC(=O)[C@H](CCC(=O)O)NC(=O)C(C)(C)NC1=O [Example 28] (cyclo([Bip(4'-COOH)][4Pal][Phe(4-COOH)]G[Pro(cis-4-F)][Trp(βS-Me,4-F)][Aib]EW[Aib][Ala(pyrimidin-5-yl)]QSG[X14])) | 0.023 nM
2 | C[C@@H](c1c[nH]c2cccc(F)c12)[C@@H]1NC(=O)[C@@H]2C[C@H](F)CN2C(=O)CNC(=O)[C@H](Cc2ccc(C(=O)O)cc2)NC(=O)[C@H](Cc2ccncc2)NC(=O)[C@H](Cc2ccc(-c3ccc(C(=O)O)cc3)cc2)NC(=O)[C@H]2C[C@@H](Cc3ccccc3)CN2C(=O)CNC(=O)[C@H](CCN)NC(=O)[C@H](CCC(N)=O)NC(=O)[C@H](Cc2cncnc2)NC(=O)C(C)(C)NC(=O)[C@H](Cc2c[nH]c3ccccc23)NC(=O)[C@H](CCC(=O)O)NC(=O)C(C)(C)NC1=O [Example 29] (cyclo([Bip(4'-COOH)][4Pal][Phe(4-COOH)]G[Pro(cis-4-F)][Trp(βS-Me,4-F)][Aib]EW[Aib][Ala(pyrimidin-5-yl)]Q[Dab]G[X5])) | 0.019 nM
3 | C[C@@H](c1c[nH]c2cccc(F)c12)[C@@H]1NC(=O)[C@@H]2C[C@H](F)CN2C(=O)CNC(=O)[C@H](Cc2ccc(C(=O)O)cc2)NC(=O)[C@H](Cc2ccncc2)NC(=O)[C@H](Cc2ccc(-c3ccc(C(=O)O)cc3)cc2)NC(=O)[C@H]2C[C@@H](Cc3ccccc3)CN2C(=O)CNC(=O)[C@H](CO)NC(=O)[C@H](CCC(N)=O)NC(=O)[C@H](Cc2cncnc2)NC(=O)C(C)(C)NC(=O)[C@H](Cc2c[nH]c3ccccc23)NC(=O)[C@H](CCC(=O)O)NC(=O)C(C)(C)NC1=O [Example 30] (cyclo([Bip(4'-COOH)][4Pal][Phe(4-COOH)]G[Pro(cis-4-F)][Trp(βS-Me,4-F)][Aib]EW[Aib][Ala(pyrimidin-5-yl)]QSG[X5])) | 0.026 nM
4 | C[C@@H](c1c[nH]c2cccc(F)c12)[C@@H]1NC(=O)[C@@H]2C[C@H](F)CN2C(=O)CNC(=O)[C@H](Cc2ccc(C(=O)O)cc2)NC(=O)[C@H](Cc2ccncc2)NC(=O)[C@H](Cc2ccc(-c3ccc(C(=O)O)cc3)cc2)NC(=O)[C@H]2C[C@@H](Cc3ccccc3)CN2C(=O)CNC(=O)[C@H](CCN)NC(=O)[C@H](CCC(N)=O)NC(=O)[C@H](Cc2cncnc2)NC(=O)C(C)(C)NC(=O)[C@H](Cc2c[nH]c3ccccc23)NC(=O)[C@H](CCC(=O)O)NC(=O)C(C)(C)NC1=O [Example 31] (cyclo([Bip(4'-COOH)][4Pal][Phe(4-COOH)]G[Pro(cis-4-F)][Trp(βS-Me,4-F)][Aib]EW[Aib][Ala(pyrimidin-5-yl)]Q[Dab]G[X5])) | 0.024 nM
5 | C[C@@H](c1c[nH]c2cccc(F)c12)[C@@H]1NC(=O)[C@@H]2C[C@H](F)CN2C(=O)CNC(=O)[C@H](Cc2ccc(C(=O)O)cc2)NC(=O)[C@H](Cc2ccncc2)NC(=O)[C@H](Cc2ccc(-c3ccc(C(=O)O)cc3)cc2)NC(=O)[C@H]2C[C@@H](Cc3ccc(F)cc3)CN2C(=O)CNC(=O)[C@H](CO)NC(=O)[C@H](CCC(N)=O)NC(=O)[C@H](CCCNC(=N)N)NC(=O)C(C)(C)NC(=O)[C@H](Cc2c[nH]c3ccccc23)NC(=O)[C@H](CCC(=O)O)NC(=O)C(C)(C)NC1=O [Example 32] (cyclo([Bip(4'-COOH)][4Pal][Phe(4-COOH)]G[Pro(cis-4-F)][Trp(βS-Me,4-F)][Aib]EW[Aib]RQSG[dPro(4R-Bzl(4-F))])) | 0.049 nM
6 | C[C@@H](c1c[nH]c2cccc(F)c12)[C@@H]1NC(=O)[C@@H]2C[C@H](F)CN2C(=O)CNC(=O)[C@H](Cc2ccc(C(=O)O)cc2)NC(=O)[C@H](Cc2ccncc2)NC(=O)[C@H](Cc2ccc(-c3ccc(C(=O)O)cc3)cc2)NC(=O)[C@H]2C[C@@H](Cc3ccc(F)cc3)CN2C(=O)CNC(=O)[C@H](CCN)NC(=O)[C@H](CCC(N)=O)NC(=O)[C@H](CCCNC(=N)N)NC(=O)C(C)(C)NC(=O)[C@H](Cc2c[nH]c3ccccc23)NC(=O)[C@H](CCC(=O)O)NC(=O)C(C)(C)NC1=O [Example 33] (cyclo([Bip(4'-COOH)][4Pal][Phe(4-COOH)]G[Pro(cis-4-F)][Trp(βS-Me,4-F)][Aib]EW[Aib]RQ[Dab]G[dPro(4R-Bzl(4-F))])) | 0.033 nM
7 | C[C@@H](c1c[nH]c2cccc(F)c12)[C@@H]1NC(=O)[C@@H]2C[C@H](F)CN2C(=O)CNC(=O)[C@H](Cc2ccc(C(=O)O)cc2)NC(=O)[C@H](Cc2ccncc2)NC(=O)[C@H](Cc2ccc(-c3ccc(C(=O)O)cc3)cc2)NC(=O)[C@H]2C[C@@H](Cc3ccc(F)cc3)CN2C(=O)CNC(=O)[C@H](CO)NC(=O)[C@H](CCC(N)=O)NC(=O)[C@H](Cc2cccnc2)NC(=O)C(C)(C)NC(=O)[C@H](Cc2c[nH]c3ccccc23)NC(=O)[C@H](CCC(=O)O)NC(=O)C(C)(C)NC1=O [Example 34] (cyclo([Bip(4'-COOH)][4Pal][Phe(4-COOH)]G[Pro(cis-4-F)][Trp(βS-Me,4-F)][Aib]EW[Aib][3Pal]QSG[dPro(4R-Bzl(4-F))])) | 0.032 nM
8 | C[C@@H](c1c[nH]c2cccc(F)c12)[C@@H]1NC(=O)[C@@H]2C[C@H](F)CN2C(=O)CNC(=O)[C@H](Cc2ccc(C(=O)O)cc2)NC(=O)[C@H](Cc2ccncc2)NC(=O)[C@H](Cc2ccc(-c3ccc(C(=O)O)cc3)cc2)NC(=O)[C@H]2C[C@@H](Cc3ccc(F)cc3)CN2C(=O)CNC(=O)[C@H](CCCNC(=N)N)NC(=O)[C@H](CCC(N)=O)NC(=O)[C@H](Cc2ccccc2)NC(=O)C(C)(C)NC(=O)[C@H](Cc2c[nH]c3ccccc23)NC(=O)[C@H](CCC(=O)O)NC(=O)C(C)(C)NC1=O [Example 35] (cyclo([Bip(4'-COOH)][4Pal][Phe(4-COOH)]G[Pro(cis-4-F)][Trp(βS-Me,4-F)][Aib]EW[Aib]FQRG[dPro(4R-Bzl(4-F))])) | 0.049 nM
9 | C[C@@H](c1c[nH]c2cccc(F)c12)[C@@H]1NC(=O)[C@@H]2C[C@H](F)CN2C(=O)CNC(=O)[C@H](Cc2ccc(C(=O)O)cc2)NC(=O)[C@H](Cc2ccncc2)NC(=O)[C@H](Cc2ccc(-c3ccc(C(=O)O)cc3)cc2)NC(=O)[C@H]2C[C@@H](Cc3ccc(F)cc3)CN2C(=O)CNC(=O)[C@H](CO)NC(=O)[C@H](CCC(N)=O)NC(=O)[C@H](Cc2ccccn2)NC(=O)C(C)(C)NC(=O)[C@H](Cc2c[nH]c3ccccc23)NC(=O)[C@H](CCC(=O)O)NC(=O)C(C)(C)NC1=O [Example 36] (cyclo([Bip(4'-COOH)][4Pal][Phe(4-COOH)]G[Pro(cis-4-F)][Trp(βS-Me,4-F)][Aib]EW[Aib][2Pal]QSG[dPro(4R-Bzl(4-F))])) | 0.054 nM
10 | CC(=O)N1CCN(c2ccc(C[C@@H]3NC(=O)[C@H]4C[C@@H](Cc5ccc(F)cc5)CN4C(=O)CNC(=O)[C@H](CCN)NC(=O)[C@H](CCC(N)=O)NC(=O)[C@H](Cc4cncnc4)NC(=O)C(C)(C)NC(=O)[C@H](Cc4c[nH]c5ccccc45)NC(=O)[C@H](CCC(=O)O)NC(=O)C(C)(C)NC(=O)[C@H]([C@@H](C)c4c[nH]c5cccc(F)c45)NC(=O)[C@@H]4C[C@H](F)CN4C(=O)CNC(=O)[C@H](Cc4ccc(C(=O)O)cc4)NC(=O)[C@H](Cc4ccncc4)NC3=O)cc2)CC1 [Example 37] (cyclo([Phe(4-(4-Ac-piperazinyl))][4Pal][Phe(4-COOH)]G[Pro(cis-4-F)][Trp(βS-Me,4-F)][Aib]EW[Aib][Ala(pyrimidin-5-yl)]Q[Dab]G[dPro(4R-Bzl(4-F))])) | 0.033 nM
11 | C[C@@H](c1c[nH]c2cccc(F)c12)[C@@H]1NC(=O)[C@@H]2C[C@H](F)CN2C(=O)CNC(=O)[C@H](Cc2ccc(C(=O)O)cc2)NC(=O)[C@H](Cc2ccncc2)NC(=O)[C@H](Cc2ccc(-c3ncc(C(=O)O)cn3)cc2)NC(=O)[C@H]2C[C@@H](Cc3ccc(F)cc3)CN2C(=O)CNC(=O)[C@H](CCN)NC(=O)[C@H](CCC(N)=O)NC(=O)[C@H](Cc2cncnc2)NC(=O)C(C)(C)NC(=O)[C@H](Cc2c[nH]c3ccccc23)NC(=O)[C@H](CCC(=O)O)NC(=O)C(C)(C)NC1=O [Example 38] (cyclo([Phe(4-(5-CO2H-2-pyrimidyl))][4Pal][Phe(4-COOH)]G[Pro(cis-4-F)][Trp(βS-Me,4-F)][Aib]EW[Aib][Ala(pyrimidin-5-yl)]Q[Dab]G[dPro(4R-Bzl(4-F))])) | 0.041 nM
